This is an account of results in patent US4001086A (priority 1976, dated 1977).

One assay relates to Cryptococcus neoformans. The assay is described as follows: standard agar-dilution assay (MIC). It is filed as cell-based. An excerpt:
Antibiotic A-30641 inhibits the growth of bacteria and fungi which are pathogenic to animal and plant life. The minimal inhibitory concentrations (MIC's) at which antibiotic A-30641 inhibited a variety of organisms, using a standard agar-dilution assay, are summarized in Table III.

A further assay has as its system C. albicans. The assay is described as follows: dermal C. albicans infection in rabbits, topical treatment. In kind it is in vivo. Conditions: 10 days, 1% solution in propylene glycol. From the text: Antibiotic A-30641 is particularly useful when administered topically.

Turning to `COC1c2cc(Cl)c(O)cc2ON2C(=O)C3NC(=O)C12SS3` (centres unmarked) [antibiotic A-30641], the MIC (as a rule, the smallest concentration in the dilution series that meets the test's criterion for growth inhibition) in the assay on Cryptococcus neoformans was above 0.156 µg/mL. Also, the “lesions caused by a dermal C. albicans infection, severity and size” value with C. albicans is “reduced in severity and size”.
